In patent publication US20170318812A1, “Plant and Crop Growth Regulating/Biostimulant Formulations and Methods of Use” (Arysta Lifescience North America, LLC, priority 2014, published 2017):
Where “and” joins values, the source holds several entries; their conditions need not be identical. Identical values can stand only once.

Columns and labels:
ZEAMX Zea mays (Corn) = test: Ipfencarbazone biostimulant effect, early post emergence foliar application, greenhouse pots, plant height: corn; assay type: in vivo; conditions: ZEAMX AG7098PRO2
Excerpt: (§1) The original objective of this Example was to evaluate the herbicidal effect of ipfencarbazone when applied as a post emergent treatment to a range of selected crops and weeds. Unexpectedly, crop plant growth stimulation was observed. The actual species of weeds and crops are listed in the summary data tabulated below and in FIGS. 1-13. By convention each plant species has a Bayer code (5-letter name) with the scientific name for the plant referenced in FIGS. 1-13. In each Figure, each tray contains the same configuration of weeds and/or crops. In each Figure there is one replication of each treatment (six treatments in total). The top three photographs in each Figure show the Bayer Codes and bottom three photographs are aligned with the top three facilitating viewing of the same plant species. Throughout the Examples various abbreviations as conventional shorthand notation and will be appreciated by those skilled in the art. Some exemplary abbreviations include, “CV”=Co-efficient of Variation,” “LSD”=Least Significant Difference” (G/L (gram per L) AND GA/L (gram of active ingredient per L); “SC”=suspension concentrate formulation. The diluent in all treatments was water. By convention factors that are identical in all treatments (e.g. diluent and surfactant) are not listed in each treatment.
(§2) Methods: The indicated size pots (see Tables below) are filled with a specific soil, the soil properties being indicated below. The referenced crops and weeds are planted by hand in each pot. […] The experiments include six treatments each replicated three times on each crop/weed species. At a specific time after emergence each crop and weed species was treated with ipfencarbazone plus a non-ionic surfactant (NIS). In the present Example, the surfactant employed was ENERGIC™ (non-ionic surfactant). The application timing is indicated in each of the Tables (1 or 2 leaf stage) below. Ipfencarbazone plus surfactant was diluted in water and applied at a rate equivalent to about 250 L/ha. Ipfencarbazone was applied using a track sprayer. After treatment, the pots were randomized in a greenhouse. At each assessment (indicated by “days after treatment” or DAT) the height of each plant was measured. The letters next to each mean indicate the level of statistical significance.
(§3) Replications: 3, Untreated treatments: 1, Design: Randomized Complete Block (RCB), Treatment units: Treated ‘Plot’ experimental unit size, Dry Form. Unit: %, Treated ‘Plot’ experimental unit size Width: 1 meter, Treated ‘Plot’ experimental unit size Length: 1.4 meters, Application volume: 250 L/ha, Mix size: 0.15 liters, […]

[1] = test system: PHSVX Phaseolus vulgaris (Garden bean); test: Ipfencarbazone biostimulant effect, early post emergence foliar application, greenhouse pots, plant height: dry bean; assay type: in vivo; conditions: PHSVX PEROLA
Excerpt: as §1, §2, §3

[2] = 62.5 g ai/ha, 15 DA-A, plots 102, 205, 302
[3] = 62.5 g ai/ha, 28 DA-A, plots 102, 205, 302
[4] = 125 g ai/ha, 15 DA-A, plots 103, 206, 305
[5] = 125 g ai/ha, 28 DA-A, plots 103, 206, 305
[6] = 250 g ai/ha, 15 DA-A, plots 104, 201, 306
[7] = 250 g ai/ha, 28 DA-A, plots 104, 201, 306

CC(C)N(C(=O)n1cnn(-c2ccc(Cl)cc2Cl)c1=O)c1ccc(F)cc1F [ARY-0572-001, ipfencarbazone]
HEIGHT, percent of untreated check (APoC) (ZEAMX Zea mays (Corn); 62.5 g ai/ha, 15 DA-A): (146.7%)
HEIGHT, treatment mean (ZEAMX Zea mays (Corn); 62.5 g ai/ha, 15 DA-A): 56.1 a cm and 56.1 cm
HEIGHT, single plots (replicates) (ZEAMX Zea mays (Corn); [2]): 52.3 cm and 64.8 cm and 51.0 cm
HEIGHT, percent of untreated check (APoC) (ZEAMX Zea mays (Corn); 62.5 g ai/ha, 28 DA-A): (175.8%)
HEIGHT, treatment mean (ZEAMX Zea mays (Corn); 62.5 g ai/ha, 28 DA-A): 89.4 a cm and 89.4 cm
HEIGHT, single plots (replicates) (ZEAMX Zea mays (Corn); [3]): 71.3 cm and 106.7 cm and 90.3 cm
HEIGHT, percent of untreated check (APoC) (ZEAMX Zea mays (Corn); 125 g ai/ha, 15 DA-A): (156.4%)
HEIGHT, treatment mean (ZEAMX Zea mays (Corn); 125 g ai/ha, 15 DA-A): 59.8 a cm and 59.8 cm
HEIGHT, single plots (replicates) (ZEAMX Zea mays (Corn); [4]): 62.7 cm and 59.0 cm and 57.7 cm
HEIGHT, percent of untreated check (APoC) (ZEAMX Zea mays (Corn); 125 g ai/ha, 28 DA-A): (168.8%)
HEIGHT, treatment mean (ZEAMX Zea mays (Corn); 125 g ai/ha, 28 DA-A): 85.9 a cm and 85.9 cm
HEIGHT, single plots (replicates) (ZEAMX Zea mays (Corn); [5]): 103.0 cm and 82.0 cm and 72.7 cm
HEIGHT, percent of untreated check (APoC) (ZEAMX Zea mays (Corn); 250 g ai/ha, 15 DA-A): (155.4%)
HEIGHT, treatment mean (ZEAMX Zea mays (Corn); 250 g ai/ha, 15 DA-A): 59.4 a cm and 59.4 cm
HEIGHT, single plots (replicates) (ZEAMX Zea mays (Corn); [6]): 56.5 cm and 61.0 cm and 60.7 cm
HEIGHT, percent of untreated check (APoC) (ZEAMX Zea mays (Corn); 250 g ai/ha, 28 DA-A): (208.3%)
HEIGHT, treatment mean (ZEAMX Zea mays (Corn); 250 g ai/ha, 28 DA-A): 106.0 a cm and 106.0 cm
HEIGHT, single plots (replicates) (ZEAMX Zea mays (Corn); [7]): 108.3 cm and 104.0 cm and 105.7 cm
HEIGHT, percent of untreated check (APoC) (ZEAMX Zea mays (Corn); 500 g ai/ha, 15 DA-A): (161.9%)
HEIGHT, treatment mean (ZEAMX Zea mays (Corn); 500 g ai/ha, 15 DA-A): 61.9 a cm and 61.9 cm
HEIGHT, single plots (replicates) (ZEAMX Zea mays (Corn); 500 g ai/ha, 15 DA-A, plots 105, 202, 301): 58.7 cm and 67.0 cm and 60.0 cm
HEIGHT, percent of untreated check (APoC) (ZEAMX Zea mays (Corn); 500 g ai/ha, 28 DA-A): (205.9%)
HEIGHT, treatment mean (ZEAMX Zea mays (Corn); 500 g ai/ha, 28 DA-A): 104.8 a cm and 104.8 cm
HEIGHT, single plots (replicates) (ZEAMX Zea mays (Corn); 500 g ai/ha, 28 DA-A, plots 105, 202, 301): 101.7 cm and 107.7 cm and 105.0 cm
HEIGHT, percent of untreated check (APoC) (ZEAMX Zea mays (Corn); 1000 g ai/ha, 15 DA-A): (98.3%)
HEIGHT, treatment mean (ZEAMX Zea mays (Corn); 1000 g ai/ha, 15 DA-A): 37.6 b cm and 37.6 cm
HEIGHT, single plots (replicates) (ZEAMX Zea mays (Corn); 1000 g ai/ha, 15 DA-A, plots 106, 203, 304): 48.7 cm and 34.7 cm and 29.3 cm
HEIGHT, percent of untreated check (APoC) (ZEAMX Zea mays (Corn); 1000 g ai/ha, 28 DA-A): (117.9%)
HEIGHT, treatment mean (ZEAMX Zea mays (Corn); 1000 g ai/ha, 28 DA-A): 60.0 b cm and 60.0 cm
HEIGHT, single plots (replicates) (ZEAMX Zea mays (Corn); 1000 g ai/ha, 28 DA-A, plots 106, 203, 304): 91.7 cm and 44.0 cm and 44.3 cm
HEIGHT, percent of untreated check (APoC) ([1]; 62.5 g ai/ha, 15 DA-A): (105.6%)
HEIGHT, treatment mean ([1]; 62.5 g ai/ha, 15 DA-A): 10.4 a cm and 10.4 cm
HEIGHT, single plots (replicates) [1, 2]: 11.7 cm (2×) and 8.0 cm
HEIGHT, percent of untreated check (APoC) ([1]; 62.5 g ai/ha, 28 DA-A, AS square root transformation): (152.2%)
HEIGHT, treatment mean ([1]; 62.5 g ai/ha, 28 DA-A, AS square root transformation (t)): 19.8 a cm and 19.8t cm
HEIGHT, single plots (replicates) [1, 3]: 24.0 cm and 17.3 cm and 19.7 cm
HEIGHT, percent of untreated check (APoC) ([1]; 125 g ai/ha, 15 DA-A): (75.8%)
HEIGHT, treatment mean ([1]; 125 g ai/ha, 15 DA-A): 7.5 ab cm and 7.5 cm
HEIGHT, single plots (replicates) [1, 4]: 0.0 cm and 10.7 cm and 11.8 cm
HEIGHT, percent of untreated check (APoC) ([1]; 125 g ai/ha, 28 DA-A, AS square root transformation): (91.8%)
HEIGHT, treatment mean ([1]; 125 g ai/ha, 28 DA-A, AS square root transformation (t)): 12.0 a cm and 12.0t cm
HEIGHT, single plots (replicates) [1, 5]: 4.3 cm and 16.0 cm and 20.3 cm
HEIGHT, percent of untreated check (APoC) ([1]; 250 g ai/ha, 15 DA-A): (5.6%)
HEIGHT, treatment mean ([1]; 250 g ai/ha, 15 DA-A): 0.6 c cm and 0.6 cm
HEIGHT, single plots (replicates) [1, 6]: 0.0 cm (2×) and 1.7 cm
HEIGHT, percent of untreated check (APoC) ([1]; 250 g ai/ha, 28 DA-A, AS square root transformation): (2.5%)
HEIGHT, treatment mean ([1]; 250 g ai/ha, 28 DA-A, AS square root transformation (t)): 0.3 a cm and 0.3t cm
HEIGHT, single plots (replicates) [1, 7]: 0.0 cm (2×) and 2.0 cm
HEIGHT, percent of untreated check (APoC) ([1]; 500 g ai/ha, 15 DA-A): (6.7%)
